# In patent publication US9902740B2, “Macrocyclic benzodiazepine dimers, conjugates thereof, preparation and uses” (BRISTOL-MYERS SQUIBB COMPANY, priority 2015, dated 2018):
# Where two headings read alike, the source gives them in different places.
# How the values were obtained:
# Type in all cases: cell-based
# [1] = test system: H226 human lung cancer cell line; assay: Cytotoxic activity of dimers against H226 cells; details: for EC50: Table 5 comparative activities, H226
# Description: (§1) H226 is a human lung cancer cell line. N87 is a human gastric cancer cell line. OVCAR3 is a human ovarian cancer cell line. HCT116 is a human colon cancer cell line. HCT116/VM46 is a human colon cancer cell line that is multi-drug and paclitaxel resistant.
# [2] = test system: OVCAR3 human ovarian cancer cell line; assay: Cytotoxic activity of dimers against OVCAR3 cells; details: for EC50: Table 5 comparative activities, OVCAR3
# Description: as §1
# [3] = test system: N87 human gastric cancer cell line; assay: Cytotoxic activity of dimers against N87 cells; details: for EC50: Table 5 comparative activities, N87; for IC50: read-out: Cell Line (IC50, nM) N87
# Description: as §1
# [4] = test system: HCT116/VM46 human colon cancer cell line (multi-drug and paclitaxel resistant); assay: Cytotoxic activity of dimers against HCT116/VM46 cells
# Description: as §1
# [5] = test system: HCT116 human colon cancer cell line; assay: Cytotoxic activity of dimers against HCT116 cells
# Description: as §1
# [6] = Table 4, H226 human lung cancer cell line, read-out: Cell Line (IC50, nM) H226
# [7] = Table 4, OVCAR3 human ovarian cancer cell line, read-out: Cell Line (IC50, nM) OVCAR3
# [8] = Table 4, N87 human gastric cancer cell line
# [9] = Homo sapiens, NCI-H226, read-out: Cell Line (IC50, nM) H226
# [10] = Homo sapiens, OVCAR-3, read-out: Cell Line (IC50, nM) OVCAR3
# [11] = Homo sapiens, HCT-116/VM46, Table 4
SMILES,"IC50 [1, 6]","IC50 [2, 7]","IC50 [3, 8]",IC50 ([4]; Table 4),IC50 ([5]; Table 4),further results
"COc1cc2c(cc1OCCCOc1cc3c(cc1OC)C(=O)N1CCC[C@H]1C=N3)N=C[C@@H]1CCCN1C2=O [Dimer A-4, reference compound]",,,,,,"EC50 ([1]; Homo sapiens, NCI-H226): 70 nM; EC50 ([2]; Homo sapiens, OVCAR-3): 56 nM; EC50 ([3]; Homo sapiens): 63 nM"
O=C1c2cc3c(cc2N=C[C@@H]2CCCN12)OCCCOc1cc2c(cc1OCCCCCCCO3)C(=O)N1CCC[C@H]1C=N2 [IIa-1],8.1 nM,3.4 nM,4.6 nM,74 nM,,EC50 [1]: 8.1 nM; EC50 [2]: 3.4 nM; EC50 [3]: 4.6 nM
O=C1c2cc3c(cc2N=C[C@@H]2CCCN12)OCCCOc1cc2c(cc1OCCCCCCCCO3)C(=O)N1CCC[C@H]1C=N2 [IIa-2],1.6 nM,1.2 nM,2.7 nM,,,EC50 [1]: 1.6 nM; EC50 [2]: 1.2 nM; EC50 [3]: 2.7 nM
O=C1c2cc3c(cc2N=C[C@@H]2CCCN12)OCCCOc1cc2c(cc1OCCCCCCCCCO3)C(=O)N1CCC[C@H]1C=N2 [IIa-3],8.7 nM,7.3 nM,8.3 nM,,,EC50 [1]: 8.7 nM; EC50 [2]: 7.3 nM; EC50 [3]: 8.3 nM
O=C1c2cc3c(cc2N=C[C@@H]2CCCN12)OCCCOc1cc2c(cc1OCCCCCCCCCCO3)C(=O)N1CCC[C@H]1C=N2 [IIa-4],12 nM,20 nM,22 nM,,,EC50 [1]: 12 nM; EC50 [2]: 20 nM; EC50 [3]: 22 nM
O=C1c2cc3c(cc2N=C[C@@H]2CCCN12)OCCCOc1cc2c(cc1OCCCCCCCCCCCO3)C(=O)N1CCC[C@H]1C=N2 [IIa-5],69 nM,78 nM,150 nM,,,EC50 [1]: 69 nM; EC50 [2]: 78 nM; EC50 [3]: 150 nM
O=C1c2cc3c(cc2N=C[C@@H]2CCCN12)OCCCOc1cc2c(cc1OCCCCCCCCCCCCO3)C(=O)N1CCC[C@H]1C=N2 [IIa-6],110 nM,140 nM,310 nM,,,EC50 [1]: 110 nM; EC50 [2]: 140 nM; EC50 [3]: 310 nM
O=C1c2cc3c(cc2N=C[C@@H]2CCCN12)OCCCCCOc1cc2c(cc1OCCCCCCCCCCCO3)C(=O)N1CCC[C@H]1C=N2 [IIa-7],12 nM,14 nM,87 nM,,,EC50 [1]: 12 nM; EC50 [2]: 14 nM; EC50 [3]: 87 nM
O=C1c2cc3c(cc2N=C[C@@H]2CCCN12)OCCCCCOc1cc2c(cc1OCCCCCCCCCCCCO3)C(=O)N1CCC[C@H]1C=N2 [IIa-8],10 nM,9.9 nM,15 nM,,,EC50 [1]: 10 nM; EC50 [2]: 9.9 nM; EC50 [3]: 15 nM
O=C1c2cc3c(cc2N=C[C@@H]2CCCN12)OCCCOc1cc2c(cc1OCCCC/C=C/CCCCO3)C(=O)N1CCC[C@H]1C=N2 [IIa-9],12 nM,12 nM,13 nM,,,EC50 [1]: 12 nM; EC50 [2]: 12 nM; EC50 [3]: 13 nM
C=C1C[C@H]2C=Nc3cc4c(cc3C(=O)N2C1)OCCCC/C=C/CCCCOc1cc2c(cc1OCCCO4)N=C[C@@H]1CC(=C)CN1C2=O [IIa-10],2 nM,0.47 nM,2.3 nM,11 nM,,
C=C1C[C@H]2C=Nc3cc4c(cc3C(=O)N2C1)OCCCCCCCCOc1cc2c(cc1OCCCO4)N=C[C@@H]1CC(=C)CN1C2=O [IIa-12],0.32 nM,0.52 nM,0.89 nM,4.8 nM,,
C=C1C[C@H]2C=Nc3cc4c(cc3C(=O)N2C1)OCCOCCOCCOc1cc2c(cc1OCCCO4)N=C[C@@H]1CC(=C)CN1C2=O [IIa-13],29 nM,20 nM,40 nM,85 nM,32 nM,
C=C1C[C@H]2C=Nc3cc4c(cc3C(=O)N2C1)OCCCCNCCCCOc1cc2c(cc1OCCCO4)N=C[C@@H]1CC(=C)CN1C2=O [IIa-14],21 nM,50 nM,23 nM,170 nM,38 nM,
O=C1c2cc3c(cc2N=C[C@@H]2Cc4ccccc4CN12)OCCCOc1cc2c(cc1OCCCCCCCCO3)C(=O)N1Cc3ccccc3C[C@H]1C=N2 [IIb-1],0.22 nM,0.33 nM,0.53 nM,1.3 nM,,
O=C1c2cc3c(cc2N=C[C@@H]2Cc4ccccc4CN12)OCCCOc1cc2c(cc1OCCCCCCCCCCO3)C(=O)N1Cc3ccccc3C[C@H]1C=N2 [IIb-2],3 nM,1.3 nM,2.5 nM,17 nM,,

SMILES,"IC50 [1, 6]","IC50 [2, 7]","IC50 [3, 8]",IC50 ([4]; Table 4),IC50 ([5]; Table 4),further results
O=C1c2cc3c(cc2N=C[C@@H]2Cc4ccccc4N12)OCCCOc1cc2c(cc1OCCCCCCCCCCO3)C(=O)N1c3ccccc3C[C@H]1C=N2 [IIb-3],5.9 nM,3.5 nM,11 nM,13 nM,,
O=C1c2cc3c(cc2N=C[C@@H]2Cc4ccccc4CN12)OCCCOc1cc2c(cc1OCCOCCOCCO3)C(=O)N1Cc3ccccc3C[C@H]1C=N2 [IIb-4],0.15 nM,0.2 nM,0.14 nM,2 nM,0.068 nM,
O=C1c2cc3c(cc2N=C[C@@H]2Cc4ccccc4CN12)OCCCOc1cc2c(cc1OCCCCNCCCCO3)C(=O)N1Cc3ccccc3C[C@H]1C=N2 [IIb-5],0.45 nM,0.6 nM,0.35 nM,7.3 nM,0.077 nM,
Nc1ccc2c(c1)CN1C(=O)c3cc4c(cc3N=C[C@@H]1C2)OCCCOc1cc2c(cc1OCCCCCCCCO4)C(=O)N1Cc3ccccc3C[C@H]1C=N2 [IIb-6],,,,,,"IC50 [1, 9]: 0.21 nM; IC50 [2, 10]: 0.21 nM; IC50 ([3]; Homo sapiens): 0.25 nM; IC50 [4, 11]: 0.66 nM; IC50 ([5]; HCT-116, Table 4): 0.016 nM"
Nc1ccc(CN2CCCCOc3cc4c(cc3OCCCOc3cc5c(cc3OCCCC2)C(=O)N2Cc3ccccc3C[C@H]2C=N5)N=C[C@@H]2Cc3ccccc3CN2C4=O)cc1 [IIb-8],0.13 nM,0.25 nM,0.27 nM,1.2 nM,0.015 nM,
O=C1c2cc3c(cc2N=C[C@@H]2CC(c4ccccc4)=CN12)OCCCOc1cc2c(cc1OCCCCCCCCCCO3)C(=O)N1C=C(c3ccccc3)C[C@H]1C=N2 [IIc-1],12 nM,7.6 nM,12 nM,30 nM,,
COc1ccc(C2=CN3C(=O)c4cc5c(cc4N=C[C@@H]3C2)OCCCOc2cc3c(cc2OCCCCCCCCCCCCO5)C(=O)N2C=C(c4ccc(OC)cc4)C[C@H]2C=N3)cc1 [IIc-2],220 nM,> 250 nM,230 nM,> 250 nM,48 nM,
COCCOc1ccc(C2=CN3C(=O)c4cc5c(cc4N=C[C@@H]3C2)OCCCOc2cc3c(cc2OCCCCCCCCCCCCO5)C(=O)N2C=C(c4ccc(OCCOC)cc4)C[C@H]2C=N3)cc1 [IIc-3],32 nM,104 nM,29 nM,58 nM,13 nM,
O=C1c2cc3c(cc2N=C[C@@H]2CC(c4ccccc4)=CN12)OCCCOc1cc2c(cc1OCCOCCOCCO3)C(=O)N1C=C(c3ccccc3)C[C@H]1C=N2 [IIc-6],1.1 nM,1.7 nM,1.5 nM,6.4 nM,0.13 nM,
COc1ccc(C2=CN3C(=O)c4cc5c(cc4N=C[C@@H]3C2)OCCCOc2cc3c(cc2OCCCCCCCCO5)C(=O)N2C=C(c4ccc(OC)cc4)C[C@H]2C=N3)cc1 [IIc-7],0.99 nM,1.8 nM,0.62 nM,1.1 nM,0.17 nM,
CN1CCN(c2ccc(C3=CN4C(=O)c5cc6c(cc5N=C[C@@H]4C3)OCCCOc3cc4c(cc3OCCCCCCCCO6)C(=O)N3C=C(c5ccc(N6CCN(C)CC6)cc5)C[C@H]3C=N4)cc2)CC1 [IIc-8],0.047 nM,0.35 nM,0.034 nM,0.076 nM,0.006 nM,
CN1CCN(c2ccc(C3=CN4C(=O)c5cc6c(cc5N=C[C@@H]4C3)OCCCOc3cc4c(cc3OCCCCCCCCO6)C(=O)N3C=C(c5ccc(N6CCNCC6)cc5)C[C@H]3C=N4)cc2)CC1 [IIc-9],,,,,,"IC50 [1, 9]: 0.33 nM; IC50 [2, 10]: 1 nM; IC50 ([3]; Homo sapiens): 0.68 nM; IC50 [4, 11]: 0.16 nM; IC50 ([5]; HCT-116, Table 4): 0.063 nM"
CN1CCN(c2ccc(C3=CN4C(=O)c5cc6c(cc5N=C[C@@H]4C3)OCCCOc3cc4c(cc3OCCCCCCCCO6)C(=O)N3C=C(c5ccc(N)cc5)C[C@H]3C=N4)cc2)CC1 [IIc-10],0.044 nM,0.36 nM,0.36 nM,0.071 nM,0.022 nM,
COc1ccc(C2=CN3C(=O)c4cc5c(cc4N=C[C@@H]3C2)OCCCOc2cc3c(cc2OCCCCCCCCO5)C(=O)N2C=C(c4ccc(N)cc4)C[C@H]2C=N3)cc1 [IIc-11],,,,,,"IC50 [1, 9]: 0.36 nM; IC50 [2, 10]: 0.31 nM; IC50 ([3]; Homo sapiens): 0.56 nM; IC50 [4, 11]: 0.36 nM; IC50 ([5]; HCT-116, Table 4): 0.063 nM"
CC1=CN2C(=O)c3cc4c(cc3N=C[C@@H]2C1)OCCCOc1cc2c(cc1OCCCCCCCCO4)C(=O)N1C=C(c3ccc(N)cc3)C[C@H]1C=N2 [IId-1],,,,,,"IC50 [1, 9]: 0.66 nM; IC50 [2, 10]: 1.2 nM; IC50 ([3]; Homo sapiens): 1.4 nM; IC50 [4, 11]: 1.2 nM; IC50 ([5]; HCT-116, Table 4): 0.14 nM"
C=C1C[C@H]2C=Nc3cc4c(cc3C(=O)N2C1)OCCCCCCCCOc1cc2c(cc1OCCCO4)N=C[C@@H]1Cc3ccc(N)cc3CN1C2=O [IId-2],0.56 nM,0.71 nM,1.1 nM,2.8 nM,0.11 nM,
